The assay deals with Signal transducer and activator of transcription 3 (Homo sapiens, UniProt P40763). Description: Inhibition of STAT3 in human K562 cells assessed as reduction in STAT3 phosphorylation.

IC50 data for 2 compounds are collected here from BindingDB's records for doi:10.1016/j.bmc.2020.115327 (Punjabi University, 2020).

Chain of Signal transducer and activator of transcription 3 (P40763 whole entry): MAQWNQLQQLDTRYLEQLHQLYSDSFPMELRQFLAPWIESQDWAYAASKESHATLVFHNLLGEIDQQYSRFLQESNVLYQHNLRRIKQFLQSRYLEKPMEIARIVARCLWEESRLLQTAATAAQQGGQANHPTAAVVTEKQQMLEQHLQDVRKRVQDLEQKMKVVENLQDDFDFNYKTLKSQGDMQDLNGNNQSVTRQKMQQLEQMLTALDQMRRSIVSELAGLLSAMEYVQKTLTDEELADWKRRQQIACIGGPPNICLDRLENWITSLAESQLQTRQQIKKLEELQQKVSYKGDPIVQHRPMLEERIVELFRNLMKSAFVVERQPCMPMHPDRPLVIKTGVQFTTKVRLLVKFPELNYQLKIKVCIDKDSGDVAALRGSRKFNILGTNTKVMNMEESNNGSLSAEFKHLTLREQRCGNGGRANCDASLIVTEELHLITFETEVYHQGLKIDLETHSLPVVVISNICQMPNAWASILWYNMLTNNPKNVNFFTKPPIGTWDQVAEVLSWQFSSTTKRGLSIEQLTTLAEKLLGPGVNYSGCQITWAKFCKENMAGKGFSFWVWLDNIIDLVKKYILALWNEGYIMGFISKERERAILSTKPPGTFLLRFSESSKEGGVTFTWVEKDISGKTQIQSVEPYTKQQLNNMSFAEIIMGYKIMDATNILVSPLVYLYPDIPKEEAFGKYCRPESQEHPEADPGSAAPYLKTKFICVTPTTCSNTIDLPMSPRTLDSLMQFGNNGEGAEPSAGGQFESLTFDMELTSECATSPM

Broadly, the IC50 is the point on the concentration scale where inhibition reaches its midpoint. For `CCc1ccc(Nc2nc3cc(N)ccc3o2)cc1`, the IC50 is 18.9 µM.
To `CCc1ccc(Nc2nc3cc(NC(=O)c4ccccc4)ccc3o2)cc1` belongs 5.8 µM.
